According to ChEMBL document CHEMBL3352474, “Design, synthesis and biological evaluation of FLT3 covalent inhibitors with a resorcylic acid core” (Bioorg Med Chem, 2014):

What was measured:
[1] = target: Receptor-type tyrosine-protein kinase FLT3 (Homo sapiens) (UniProt P36888)
Description: Binding affinity to FLT3 (unknown origin) assessed as dissociation half life

[2] = Antiproliferative activity against human THP1 cells assessed as growth inhibition at 5 uM after 72 hrs by luminescent cell viability assay; assay type: functional; conditions: THP-1, 72 h, read-out: GI
[3] = Antiproliferative activity against human THP1 cells after 72 hrs by luminescent cell viability assay; assay type: functional, cell-based; conditions: THP-1, 72 h
[4] = tested on: MV4-11; assay: Antiproliferative activity against human MV4-11 cells assessed as growth inhibition at 5 uM after 72 hrs by luminescent cell viability assay; assay type: functional; conditions: MV4-11, 72 h, read-out: GI
[5] = tested on: MV4-11; assay: Antiproliferative activity against human MV4-11 cells after 72 hrs by luminescent cell viability assay; assay type: functional, cell-based; conditions: MV4-11, 72 h
[6] = target: T1, Receptor-type tyrosine-protein kinase FLT3 (Homo sapiens, UniProt P36888); assay: Inhibition of recombinant FLT3 (unknown origin) by TR-FRET assay
T1 sequence (P36888 whole entry): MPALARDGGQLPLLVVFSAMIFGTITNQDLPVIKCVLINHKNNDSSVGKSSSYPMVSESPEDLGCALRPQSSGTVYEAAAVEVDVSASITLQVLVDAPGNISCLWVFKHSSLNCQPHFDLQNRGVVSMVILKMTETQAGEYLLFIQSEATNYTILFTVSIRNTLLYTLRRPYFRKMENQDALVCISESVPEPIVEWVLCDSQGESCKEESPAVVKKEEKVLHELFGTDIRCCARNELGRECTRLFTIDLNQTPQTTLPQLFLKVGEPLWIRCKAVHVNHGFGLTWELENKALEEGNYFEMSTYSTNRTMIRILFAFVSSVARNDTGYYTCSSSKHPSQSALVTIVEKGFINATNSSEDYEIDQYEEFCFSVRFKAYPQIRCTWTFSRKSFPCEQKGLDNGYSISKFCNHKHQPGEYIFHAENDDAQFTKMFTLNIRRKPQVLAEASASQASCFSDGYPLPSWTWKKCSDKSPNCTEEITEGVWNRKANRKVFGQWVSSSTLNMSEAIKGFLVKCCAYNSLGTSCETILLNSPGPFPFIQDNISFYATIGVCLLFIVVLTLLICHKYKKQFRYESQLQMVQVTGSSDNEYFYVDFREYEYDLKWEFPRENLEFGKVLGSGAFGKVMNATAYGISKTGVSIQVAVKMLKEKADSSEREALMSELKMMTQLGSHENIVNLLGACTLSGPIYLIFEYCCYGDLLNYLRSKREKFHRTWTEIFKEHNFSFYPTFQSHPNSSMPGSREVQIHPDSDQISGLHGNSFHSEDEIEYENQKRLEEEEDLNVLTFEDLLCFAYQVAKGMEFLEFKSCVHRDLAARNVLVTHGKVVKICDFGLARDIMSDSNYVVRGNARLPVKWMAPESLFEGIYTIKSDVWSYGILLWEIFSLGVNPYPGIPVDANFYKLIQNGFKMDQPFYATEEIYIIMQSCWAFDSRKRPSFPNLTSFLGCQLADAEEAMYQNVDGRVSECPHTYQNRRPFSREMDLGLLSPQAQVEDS

[7] = target: Receptor-type tyrosine-protein kinase FLT3 (Homo sapiens, UniProt P36888, D835Y); assay: Inhibition of recombinant FLT3 D835Y mutant (unknown origin) by TR-FRET assay
[8] = target: Receptor-type tyrosine-protein kinase FLT3 (Homo sapiens, UniProt P36888, ITD); assay: Inhibition of recombinant FLT3 ITD mutant (unknown origin) by RBC kinase assay
[9] = Antiproliferative activity against human HL60 cells assessed as growth inhibition at 5 uM after 72 hrs by luminescent cell viability assay; assay type: functional; conditions: HL-60, 72 h, read-out: GI
[10] = Antiproliferative activity against human HEK293T cells assessed as growth inhibition at 5 uM after 72 hrs by luminescent cell viability assay; assay type: cell-based, HEK-293T; conditions: read-out: GI
[11] = tested on: K562; assay: Antiproliferative activity against human K562 cells assessed as growth inhibition at 5 uM after 72 hrs by luminescent cell viability assay; assay type: functional; conditions: K562, 72 h, read-out: GI
[12] = target: MAP kinase-interacting serine/threonine-protein kinase 1 (Homo sapiens) (UniProt Q9BUB5); assay: Inhibition of MNK1 (unknown origin) at 10 uM
Sequence of MAP kinase-interacting serine/threonine-protein kinase 1 (Homo sapiens) (Q9BUB5 whole entry, looked up): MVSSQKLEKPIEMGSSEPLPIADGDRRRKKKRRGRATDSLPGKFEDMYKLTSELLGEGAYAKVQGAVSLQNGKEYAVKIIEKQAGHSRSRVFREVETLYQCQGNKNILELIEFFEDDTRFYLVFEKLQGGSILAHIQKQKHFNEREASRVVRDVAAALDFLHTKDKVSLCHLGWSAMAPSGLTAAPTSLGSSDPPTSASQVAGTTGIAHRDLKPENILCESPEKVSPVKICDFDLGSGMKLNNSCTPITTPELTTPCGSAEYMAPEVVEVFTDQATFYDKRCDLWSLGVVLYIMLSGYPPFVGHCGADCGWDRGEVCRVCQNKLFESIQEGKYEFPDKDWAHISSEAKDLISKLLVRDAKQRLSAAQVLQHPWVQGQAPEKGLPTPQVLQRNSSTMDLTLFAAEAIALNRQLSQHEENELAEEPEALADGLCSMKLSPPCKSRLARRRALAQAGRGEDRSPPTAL

[13] = target: MAP kinase-interacting serine/threonine-protein kinase 2 (Homo sapiens) (UniProt Q9HBH9); assay: Inhibition of MNK2 (unknown origin) at 10 uM
Sequence of MAP kinase-interacting serine/threonine-protein kinase 2 (Homo sapiens) (Q9HBH9 whole entry, looked up): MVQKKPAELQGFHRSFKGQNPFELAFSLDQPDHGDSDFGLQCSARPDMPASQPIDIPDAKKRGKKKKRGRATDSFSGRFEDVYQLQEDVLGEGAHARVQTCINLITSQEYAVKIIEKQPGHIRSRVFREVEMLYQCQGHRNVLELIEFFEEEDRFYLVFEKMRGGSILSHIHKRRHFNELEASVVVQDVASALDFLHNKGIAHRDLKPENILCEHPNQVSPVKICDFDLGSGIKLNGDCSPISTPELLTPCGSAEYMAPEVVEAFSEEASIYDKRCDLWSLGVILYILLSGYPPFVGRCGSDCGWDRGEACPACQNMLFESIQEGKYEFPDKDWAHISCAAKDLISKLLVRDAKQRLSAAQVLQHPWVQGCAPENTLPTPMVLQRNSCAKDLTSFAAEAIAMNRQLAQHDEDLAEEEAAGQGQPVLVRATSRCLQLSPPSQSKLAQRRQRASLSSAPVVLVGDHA

| T1/2 [1] | IC50 [5] | IC50 [6] | IC50 [7] | IC50 [8] | inhibition [12] | inhibition [13] | Structure (SMILES) | inhibition of growth at 5 µM [2] | IC50 [3] | inhibition of growth at 5 µM [4] | inhibition of growth at 5 µM [9] | inhibition at 72 h, 5 µM [10] | inhibition of growth at 5 µM [11] |
| --- | --- | --- | --- | --- | --- | --- | --- | --- | --- | --- | --- | --- | --- |
| 11.3 min | – | – | – | – | – | – | CCN(CC)CCNC(=O)c1c(C)[nH]c(/C=C2\C(=O)Nc3ccc(F)cc32)c1C | – | – | – | – | – | – |
| – | 4.04 µM | > 30 µM | > 30 µM | 1.11 µM | 7.8% | 0.8% | CCN(CC)C/C=C/C(=O)NC/C=C/c1cc(OCCc2ccc(F)cc2)cc(O)c1C(=O)OC(C)C | 25.7% | > 10 µM | 84.9% | 36.8% | 28.5% | 49.8% |
| – | 4.66 µM | 10.8 µM | 12 µM | 2.25 µM | 5.6% | 13.9% | C=CS(=O)(=O)NC/C=C/c1cc(OC)cc(O)c1C(=O)OC(C)C | 19.9% | 14.7 µM | 72.3% | 16.6% | 0.1% | 36.2% |
| – | 1.46 µM | 1.64 µM | 0.95 µM | > 30 µM | 4.1% | 0% | COc1cc(O)c(C(=O)OCc2ccc(F)cc2)c(/C=C/CN2C(=O)C=CC2=O)c1 | 0% | 7.34 µM | 99.7% | 82.2% | 37.9% | 96.4% |
| – | 1.57 µM | 0.43 µM | 3.03 µM | 13.2 µM | 6.2% | 2.4% | COc1cc(O)c(C(=O)OC(C)C)c(CCCN2C(=O)C=CC2=O)c1 | 98.8% | 6.74 µM | 99.8% | 67.9% | 13.4% | 98.9% |
